From patent US7176035B2, “Protein-protein interactions and methods for identifying interacting proteins and the amino acid sequence at the site of interaction” (priority 1999, dated 2007)
Where no end group is shown, it is not given here.

How the values were obtained:
[1] = tested on: 57 kDa protein (α- and β-tubulins); assay: Binding of rod-fixed overlapping hexapeptides of P-gp linker domains to [35S]methionine-labeled total cell lysate, SDS-PAGE; conditions: for binding affinity to the 57 kDa protein in the overlapping hexapeptide scan: total cell lysate from [35S]methionine labeled CEM or CEM/VLB1.0 cells, bound proteins eluted with SDS, 10% SDS-PAGE; for binding of resynthesized hexapeptide to the 57 kDa protein: total cell lysate from [35S]methionine labeled cells, 24 hour or 48 hour incubation (FIG. 11)
Experimental: Pre-derivatized plastic rods, active ester and polypropylene trays were purchased from Cambridge Research Biochemicals (Valley Stream, N.Y.). Peptides were synthesized on solid polypropylene rods as previously described (36, 37). Briefly, the F-moc protecting group on the prederivatized polypropylene rods as solid support (arranged in a 96-well formate) was removed by incubation with 20% (v/v) piperidine in dimethylformamide (DMF) for 30 minutes with shaking. Following the deprotection of the β-alanine spacer on the polypropylene rods, Fmoc protected amino acids were dissolved in HOBt/DMF and added to the appropriate wells containing deprotected rods. Coupling of amino acids was allowed to take place for 18 hours at room temperature after which the rods were washed in DMF (1×2 minutes), methanol (4×2 minutes), and DMF (1×2 minutes). The coupling of the second amino acid required the deprotection of the F-moc amino protecting group of the first amino acid and incubation of the rods with the second preactivated F-moc-protected amino acids (pentafluorophenyl derivatives). The reaction was allowed to proceed for 18 hours, and the rods were removed and washed as indicated above. The same steps were repeated for each amino acid coupling until the sixth amino acid was coupled. Following the last coupling step, the F-moc N-terminal protecting group was removed with 20% piperidine/DMF and the free amino group acetylated for 90 minutes in an acetylation cocktail containing acetic anhydride:diisopropylethylamine (DIEA):DMF (50:1:50 v/v/v). The side chain protecting groups of the N-terminal acetylated hexapeptides onto the polypropylene rods were removed by incubation in a cleavage mixture containing trifluoroacetic acid:phenol:ethandithiol (95:2.5:2.5 v/v/v) for 4 hours at room temperature. After the cleavage step the rods were washed with dichloromethane (DCM) and neutralized in 5% (v/v) DIEA/DCM. The deprotected peptide-coupled rods were washed in DCM, methanol and vacuum dried for 18 hours.
Following metabolic labeling of proteins with [^35S] methionine, cells were washed 3 times with phosphate buffered saline (PBS) and resuspended in hypotonic buffer (10 mM KCl, 1.5 mM MgCl2, 10 mM Tris-HCl, pH 7.4) containing protease inhibitors (2 mM PMSF, 3 μg/ml Leupeptin, 4 μg/ml pepstatin A and 1 μg/ml aprotinin) and kept on ice for 30 minutes. […] The amount of protein in the above samples was determined by the method of Lowry (69).
For a binding assay, [^35S] methionine labeled proteins from total cell lysate were mixed with equal volume of 3–6% BSA in phosphate buffered saline (PBS) and incubated with overlapping hexapeptides covalently fixed to polypropylene rods. […] The peptides-fixed rods are now ready for the next round of screening. […]

~41 kDa protein = assay: Resynthesized high affinity hexapeptides incubated with total cell lysate; assay type: binding; conditions: total cell lysate from [35S]methionine labeled cells (FIG. 11); level rises with longer incubation
Experimental: Two high affinity binding sequences ^658RSSLIR^663 (SEQ ID NO: 7) and ^669SVRGSQ^674 (SEQ ID NO: 8) from HP-gp1 linker domain were resynthesized and incubated with total cell lysate from [^35S] methionine metabolically labeled cells following 24 hour or 48 hour incubation times. Bound proteins were eluted from peptide-fixed rods and resolved by 10% SDS-PAGE. The migration of the molecular weight markers is shown to the left of the figure.
For a binding assay, [^35S] methionine labeled proteins from total cell lysate were mixed with equal volume of 3–6% BSA in phosphate buffered saline (PBS) and incubated with overlapping hexapeptides covalently fixed to polypropylene rods. The peptides and total cell lysate were incubated overnight at 4° C. The rods were then removed and washed four times in PBS. The bound proteins were eluted by incubating the peptide-fixed rods in 1×SDS sample buffer for 60 minutes at room temperature with shaking. The peptides-fixed rods, were regenerated by incubation in PBS, containing 2% SDS and 1 mM β-mercaptoethanol at 65° C. in a sonicator for 30 minutes. Following the latter incubation, the rods were washed for five minutes in 65° C. ionized water and two minutes in 65° C. methanol. The peptides-fixed rods are now ready for the next round of screening. […]

Row | Substance | binding affinity to the 57 kDa protein in the overlapping hexapeptide scan [1] | binding of resynthesized hexapeptide to the 57 kDa protein [1] | binding of resynthesized hexapeptide to a ~41 kDa protein (~41 kDa protein)
1 | SVRGSQ: N-terminal acetylated hexapeptide from the second region of HP-gp1 linker domain, covalently fixed to polypropylene rods (Ac-SVRGSQ; also: attached to polypropylene rods; listed as Homo sapiens) | bound with the highest affinity to the 57 kDa protein | bound specifically to the 57 kDa protein | bound specifically
2 | RSSLIR: N-terminal acetylated hexapeptide from the second region of HP-gp1 linker domain, covalently fixed to polypropylene rods (Ac-RSSLIR; also: attached to polypropylene rods; listed as Homo sapiens) | bound with the highest affinity to the 57 kDa protein | bound specifically to the 57 kDa protein | bound specifically
